Experimental data published in ChEMBL document CHEMBL3098101, “Fragment based discovery of arginine isosteres through REPLACE: towards non-ATP competitive CDK inhibitors” (Bioorg Med Chem, 2014).
pIC50: −log10 of the molar value. Where a SMILES comes first, the peptide text is derived from it. [ ]: non-standard residue; d: D form. The star is where a group is joined. Furoyl(5-pyrazol-1-ylmethyl) = O=C(c1ccc(Cn2cccn2)o1)*; Phe(4-F) = N[C@@H](Cc1ccc(F)cc1)C(=O)O; Picolinoyl(6-Me) = Cc1cccc(C(=O)*)n1; X13 = CN1CCN(Cc2ccc(C(=O)*)o2)CC1; X1 = Cc1cnn(Cc2ccc(C(=O)*)o2)c1; X11 = CCN(CC)Cc1ccc(C(=O)*)o1; X12 = O=C(c1csc(-c2cccs2)n1)*; X14 = O=C(c1csc(-c2ccsc2)n1)*; X15 = CCOc1ccc(CC(=O)*)cc1OCC; X7 = CC(C)COc1ccc(CC(=O)*)cc1; X4 = O=C(c1ccc(Cn2ccnc2)o1)*; Picolinoyl = O=C(c1ccccn1)*; X16 = CCOc1ccc(CC(=O)*)cc1; X9 = CCCOc1ccc(CC(=O)*)cc1; X10 = CCOc1cccc(C(=O)*)n1; X8 = COc1cccc(C(=O)*)n1

Assays:
[1] = molecular target: Cyclin-dependent kinase 4/cyclin D1 (Homo sapiens, UniProt P24385); test: Inhibition of human recombinant CDK4/cyclin D1 using fluoresceinyl-Ahx-Pro-Val-Lys-Arg-Arg-Leu-(3ClPhe)-Gly as substrate after 45 mins by fluorescence polarization assay; format: protein-complex assay
Chain of Cyclin-dependent kinase 4/cyclin D1 (P11802 whole entry): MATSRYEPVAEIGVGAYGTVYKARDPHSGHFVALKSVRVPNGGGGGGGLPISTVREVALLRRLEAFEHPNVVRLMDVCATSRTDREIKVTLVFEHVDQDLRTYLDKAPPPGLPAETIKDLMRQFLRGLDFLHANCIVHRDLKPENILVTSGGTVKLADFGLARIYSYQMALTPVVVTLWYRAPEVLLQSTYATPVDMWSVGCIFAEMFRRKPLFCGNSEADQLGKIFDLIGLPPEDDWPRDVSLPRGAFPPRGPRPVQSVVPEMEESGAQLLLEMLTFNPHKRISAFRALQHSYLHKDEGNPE
Chain of Cyclin-dependent kinase 4/cyclin D1 (P24385 whole entry): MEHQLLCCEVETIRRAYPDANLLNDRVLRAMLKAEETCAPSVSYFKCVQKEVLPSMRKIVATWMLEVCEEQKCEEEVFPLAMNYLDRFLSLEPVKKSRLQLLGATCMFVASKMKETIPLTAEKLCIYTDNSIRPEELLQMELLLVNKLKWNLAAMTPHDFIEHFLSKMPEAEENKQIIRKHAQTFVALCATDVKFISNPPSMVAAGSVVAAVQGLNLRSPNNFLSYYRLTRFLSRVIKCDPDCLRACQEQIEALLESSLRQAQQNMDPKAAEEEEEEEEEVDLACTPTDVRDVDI

CDK2/Cyclin A2 = CDK2/Cyclin A2 (Homo sapiens, UniProt P24941); test: Inhibition of human recombinant CDK2/cyclin A using fluoresceinyl-Ahx-Pro-Val-Lys-Arg-Arg-Leu-Phe-Gly as substrate after 45 mins by fluorescence polarization assay; format: protein-complex assay

Row | SMILES | pIC50 [1] | pIC50 (CDK2/Cyclin A2)
1 | CCOc1ccc(CC(=O)N[C@@H](CCCNC(=N)N)C(=O)N[C@@H](CC(C)C)C(=O)N[C@@H](CC(N)=O)C(=O)N[C@@H](Cc2ccc(F)cc2)C(=O)O)cc1OCC (X15-RLN[Phe(4-F)]-OH) | 5.52 | 5.28
2 | CC[C@H](C)[C@H](NC(=O)[C@H](CC(C)C)NC(=O)[C@H](CCCN=C(N)N)NC(=O)c1ccc(Cn2cccn2)o1)C(=O)N[C@@H](Cc1ccccc1)C(=O)O ({Furoyl(5-pyrazol-1-ylmethyl)}-RLIF-OH) | < 4.00 | < 4.00
3 | CCOc1cccc(C(=O)N[C@@H](CCCNC(=N)N)C(=O)N[C@@H](CC(C)C)C(=O)N[C@@H](CC(N)=O)C(=O)N[C@@H](Cc2ccc(F)cc2)C(=O)O)n1 (X10-RLN[Phe(4-F)]-OH) | < 4.00 | 4.40
4 | CC[C@H](C)[C@H](NC(=O)[C@H](CC(C)C)NC(=O)[C@H](CCCNC(=N)N)NC(=O)c1ccc(CN2CCN(C)CC2)o1)C(=O)N[C@@H](Cc1ccccc1)C(=O)O (X13-RLIF-OH) | 4.36 | 4.30
5 | CC[C@H](C)[C@H](NC(=O)[C@H](CC(C)C)NC(=O)[C@H](CCCN=C(N)N)NC(=O)c1csc(-c2ccsc2)n1)C(=O)N[C@@H](Cc1ccccc1)C(=O)O (X14-RLIF-OH) | < 3.74 | 4.25
6 | CC[C@H](C)[C@H](NC(=O)[C@H](CC(C)C)NC(=O)[C@H](CCCNC(=N)N)NC(=O)c1cccc(C)n1)C(=O)N[C@@H](Cc1ccccc1)C(=O)O ({Picolinoyl(6-Me)}-RLIF-OH) | 4.07 | < 4.00
7 | COc1cccc(C(=O)N[C@@H](CCCN=C(N)N)C(=O)N[C@@H](CC(C)C)C(=O)N[C@@H](CC(N)=O)C(=O)N[C@@H](Cc2ccc(F)cc2)C(=O)O)n1 (X8-RLN[Phe(4-F)]-OH) | 4.43 | 4.44
8 | CC(C)COc1ccc(CC(=O)N[C@@H](CCCNC(=N)N)C(=O)N[C@@H](CC(C)C)C(=O)N[C@@H](CC(N)=O)C(=O)N[C@@H](Cc2ccc(F)cc2)C(=O)O)cc1 (X7-RLN[Phe(4-F)]-OH) | < 4.00 | < 4.00
9 | CC[C@H](C)[C@H](NC(=O)[C@H](CC(C)C)NC(=O)[C@H](CCCNC(=N)N)NC(=O)c1ccc(CN(CC)CC)o1)C(=O)N[C@@H](Cc1ccccc1)C(=O)O (X11-RLIF-OH) | 4.38 | 4.36
10 | CC[C@H](C)[C@H](NC(=O)[C@H](CC(C)C)NC(=O)[C@H](CCCNC(=N)N)NC(=O)c1csc(-c2cccs2)n1)C(=O)N[C@@H](Cc1ccccc1)C(=O)O (X12-RLIF-OH) | < 3.74 | < 3.74
11 | CCOc1ccc(CC(=O)N[C@@H](CCCN=C(N)N)C(=O)N[C@@H](CC(C)C)C(=O)N[C@@H](CC(N)=O)C(=O)N[C@@H](Cc2ccc(F)cc2)C(=O)O)cc1 (X16-RLN[Phe(4-F)]-OH) | < 4.00 | < 4.00
12 | CCCOc1ccc(CC(=O)N[C@@H](CCCN=C(N)N)C(=O)N[C@@H](CC(C)C)C(=O)N[C@@H](CC(N)=O)C(=O)N[C@@H](Cc2ccc(F)cc2)C(=O)O)cc1 (X9-RLN[Phe(4-F)]-OH) | < 4.30 | < 4.00
13 | CC[C@H](C)[C@H](NC(=O)[C@H](CC(C)C)NC(=O)[C@H](CCCN=C(N)N)NC(=O)c1ccc(Cn2ccnc2)o1)C(=O)N[C@@H](Cc1ccccc1)C(=O)O (X4-RLIF-OH) | 3.80 | < 4.00
14 | CC(C)C[C@H](NC(=O)[C@H](CCCN=C(N)N)NC(=O)c1ccccn1)C(=O)N[C@@H](CC(N)=O)C(=O)N[C@@H](Cc1ccc(F)cc1)C(=O)O (Picolinoyl-RLN[Phe(4-F)]-OH) | 4.32 | 4.53
15 | CC[C@H](C)[C@H](NC(=O)[C@H](CC(C)C)NC(=O)[C@H](CCCN=C(N)N)NC(=O)c1ccc(Cn2cc(C)cn2)o1)C(=O)N[C@@H](Cc1ccccc1)C(=O)O (X1-RLIF-OH) | < 3.74 | < 4.00
